Data on nine molecules can be found in ChEMBL document CHEMBL3046271, “Design and synthesis of 3-[3-(substituted phenyl)-4-piperidin-1-ylmethyl/-4-morpholin-4-ylmethyl-4,5-dihydro-isoxazol-5-yl]-1H-indoles as potent anti-inflammatory agents” (Med Chem Res, 2010).

For series [1], the system named is Rattus norvegicus. Put plainly: Antioxidant activity in Rattus norvegicus Wistar (rat) assessed as malondialdehyde content in gastric mucosa at 210 mg/kg, po after 17 hr by UV spectrophotometric analysis (reference value: 3.23 +/- 0.05 nmol). It is filed as functional.
For series [2], the system named is Rattus norvegicus. Description: Anti-inflammatory activity in Rattus norvegicus Wistar (rat) assessed as inhibition of carrageenan-induced paw edema at 70 mg/kg, po administered 1 hr prior to carrageenan challenge measured after 4 hr by plethysmometric analysis relative to control. It is filed as functional.
Series [3] deals with Rattus norvegicus. Put plainly: Anti-inflammatory activity in Rattus norvegicus Wistar (rat) assessed as inhibition of carrageenan-induced paw edema at 70 mg/kg, po administered 1 hr prior to carrageenan challenge measured after 3 hr by plethysmometric analysis relative to control. In kind it is functional. For orientation: The carrageenan paw model is a standard test of acute inflammation.

Series [4] deals with Rattus norvegicus. Description: Ulcerogenic activity in Rattus norvegicus Wistar (rat) stomach assessed as severity index at 210 mg/kg, po after 17 hr relative to control. It is filed as toxicity, organism-based. Further details: dose 210 mg/kg, route oral. To be noted: in vivo.
Series [5] has as its system Rattus norvegicus. Put plainly: Anti-inflammatory activity in Rattus norvegicus Wistar (rat) assessed as inhibition of carrageenan-induced paw edema at 35 mg/kg, po administered 1 hr prior to carrageenan challenge measured after 4 hr by plethysmometric analysis relative to control. It is filed as functional.
Series [6] has as its system Rattus norvegicus. Description: Ulcerogenic activity in Rattus norvegicus Wistar (rat) stomach assessed as severity index at 105 mg/kg, po after 17 hr relative to control. It is filed as toxicity, organism-based. Further details: dose 105 mg/kg, route oral. To be noted: in vivo.
The test system of series [7] is Rattus norvegicus. Description: Anti-inflammatory activity in Rattus norvegicus Wistar (rat) assessed as inhibition of carrageenan-induced paw edema at 35 mg/kg, po administered 1 hr prior to carrageenan challenge measured after 3 hr by plethysmometric analysis relative to control. In kind it is functional.
In series [8] the test system is Rattus norvegicus. Description: Antioxidant activity in Rattus norvegicus Wistar (rat) assessed as malondialdehyde content in gastric mucosa at 105 mg/kg, po after 17 hr by UV spectrophotometric analysis (reference value: 3.23 +/- 0.05 nmol). It is filed as functional.

As to `Clc1ccc(C2=NOC(c3c[nH]c4ccccc34)C2CN2CCCCC2)cc1` (stereo not given), the Activity in the series with Rattus norvegicus [1] is given as 4.38 nmol. Further, the inhibition in vivo at 70 mg/kg in the series with Rattus norvegicus [2] is 53.5%; in the series on Rattus norvegicus [3], 45.1%. For the same molecule, the UI with Rattus norvegicus [4] is 0.583.

As to `c1ccc(C2=NOC(c3c[nH]c4ccccc34)C2CN2CCOCC2)cc1` (stereo not given), the inhibition in vivo at 70 mg/kg stood at 45.5% with Rattus norvegicus [2] and 35.3% in the series with Rattus norvegicus [3].

With `COc1ccc2c(c1)c(CC(=O)O)c(C)n2C(=O)c1ccc(Cl)cc1` [INDOMETHACIN], the inhibition in vivo at 35 mg/kg in the series on Rattus norvegicus [5] stood at 76.5%; with Rattus norvegicus [7], 65.2%. Moreover, the UI in the series with Rattus norvegicus [6] was 2.33. Also, the Activity in the series on Rattus norvegicus [8] is given as 9.29 nmol.

Consider `Cc1ccc(C2=NOC(c3c[nH]c4ccccc34)C2CN2CCOCC2)cc1` (stereo not given), for which the inhibition in vivo at 70 mg/kg amounted to 48.5% in the series on Rattus norvegicus [2] and 38.2% in the series on Rattus norvegicus [3].

For `Clc1ccc(C2=NOC(c3c[nH]c4ccccc34)C2CN2CCOCC2)cc1` (stereo not given), in the series on Rattus norvegicus [1], the Activity was determined as 4.39 nmol. Further, the inhibition in vivo at 70 mg/kg worked out at 50.5% with Rattus norvegicus [2] and 44.1% with Rattus norvegicus [3]. Besides, the UI with Rattus norvegicus [4] worked out at 0.75.

In the case of `COc1ccc(C2=NOC(c3c[nH]c4ccccc34)C2CN2CCCCC2)cc1` (stereo not given), the Activity with Rattus norvegicus [1] came out at 4.51 nmol. Also, the inhibition in vivo at 70 mg/kg in the series on Rattus norvegicus [2] amounted to 50.5%; with Rattus norvegicus [3], 45.1%. The UI with Rattus norvegicus [4] worked out at 0.75.

Take `c1ccc(C2=NOC(c3c[nH]c4ccccc34)C2CN2CCCCC2)cc1` (stereo not given): the inhibition in vivo at 70 mg/kg was 48.5% in the series on Rattus norvegicus [2] and 34.3% with Rattus norvegicus [3].

Take `COc1ccc(C2=NOC(c3c[nH]c4ccccc34)C2CN2CCOCC2)cc1` (stereo not given): the Activity in the series on Rattus norvegicus [1] stood at 4.16 nmol. The figures for the inhibition in vivo at 70 mg/kg in the series on Rattus norvegicus [2] and with Rattus norvegicus [3] were 55.5% and 44.1%, respectively. Moreover, the UI in the series on Rattus norvegicus [4] came out at 0.25.

Regarding `Cc1ccc(C2=NOC(c3c[nH]c4ccccc34)C2CN2CCCCC2)cc1` (stereo not given), the Activity in the series with Rattus norvegicus [1] came to 4.28 nmol. Also, the inhibition in vivo at 70 mg/kg in the series with Rattus norvegicus [2] turned out to be 51.5%; with Rattus norvegicus [3] it was 41.2%. Besides, the UI with Rattus norvegicus [4] is 0.5.

The inhibition in vivo is the share of the control response that was lost under treatment.
